The results in this text go back to patent publication US10351546B2, “Pyridin-3-yl acetic acid derivatives as inhibitors of human immunodeficiency virus replication” (priority 2015, dated 2019).

In one assay the test system is NL-RLuc virus. Put plainly: Inhibition of HIV replication (NL-RLuc luciferase reporter virus in MT-2 cells). Type of assay: cell-based. The settings on record: Human immunodeficiency virus 1, MT2, 120 h, read-out: Activity. An excerpt: Inhibition of HIV replication: A recombinant NL-RLuc proviral clone was constructed in which a section of the nef gene form NL4-3 was replaced with the Renilla Luciferase gene. This virus is fully infectious and can undergo multiple cycles of replication in cell culture. In addition, the luciferous reporter provides a simple and easy method for quantitating the extent of virus growth and consequently, the antiviral activity of test compounds. The plasmid pNLRLuc contains the proviral NL-Rluc DNA cloned into pUC18 at the PvuII site. The NL-RLuc virus was prepared by transfection of 293T cells with the plasmid pNLRLuc. Transfections were performed using the LipofectAMINE PLUS kit form Invitrogen (Carlsbad, Calif.) according to the manufacturer and the virus generated was titered in MT-2 cells. For susceptibility analyses, the titrated virus was used to infect MT-2 cells in the presence of compound, and after 5 days of incubation, cells were processed and quantitated for virus growth by the amount of expressed luciferase. Assay media was RPMI 1640 supplemented with 10% heat inactivated fetal bovine serum (FBS), 100 units/ml penicillin G/100 units/ml streptomycin, 10 mM HEPES buffer pH 7.55 and 2 mM L-glutamine. The results form at least 2 experiments were used to calculate the EC50 values. Luciferase was quantitated using the Dual Luciferase kit form Promega (Madison, Wis.). Susceptibility of viruses to compounds was determined by incubation in the presence of serial dilutions of the compound. The 50% effective concentration (EC50) was calculated by using the exponential form of the median effect equation where (Fa)=1/[1+(ED50/drug conc.)^m](Johnson V A, Byington R T. Infectivity Assay. In Techniques in HIV Research. ed. Aldovini A, Walker B D. 71-76. New York: Stockton Press. 1990). Activity equal to A refers to a compound having an EC50≤100 nM, while B and C denote compounds having an EC50 between 100 nM and 1 uM (B) or >1 uM (C).
Turning to `Cc1cc(F)ccc1CN1CCc2cc(-c3c(CN4CCC(F)(F)CC4)nc(C)c([C@H](OC(C)(C)C)C(=O)O)c3N3CCC(C)(C)CC3)ccc2C1` [Example 128, (S)-2-(tert-Butoxy)-2-(6-((4,4-difluoropiperidin-1-yl)methyl)-4-(4,4-dimethylpiperidin-1-yl)-5-(2-(4-fluoro-2-methylbenzyl)-1,2,3,4-tetrahydroisoquinolin-6-yl)-2-methylpyridin-3-yl)acetic acid], the EC50 was less than 0.1 µM.
Same read-out and setting: next, `CCNCc1nc(C)c([C@H](OC(C)(C)C)C(=O)O)c(N2CCC(C)(C)CC2)c1-c1ccc(OCCc2ccc(F)cc2)cc1` [Example 71, (S)-2-(tert-Butoxy)-2-(4-(4,4-dimethylpiperidin-1-yl)-6-((ethylamino)methyl)-5-(4-(4-fluorophenethoxy)phenyl)-2-methylpyridin-3-yl)acetic acid]: less than 0.1 µM; `Cc1nc(COCC2CC(F)(F)C2)c(-c2ccc(OCCc3ccc(F)cc3)cc2)c(N2CCC(C)(C)CC2)c1[C@H](OC(C)(C)C)C(=O)O` [Example 30, (S)-2-(tert-Butoxy)-2-(6-(((3,3-difluorocyclobutyl)methoxy)methyl)-4-(4,4-dimethylpiperidin-1-yl)-5-(4-(4-fluorophenethoxy)phenyl)-2-methylpyridin-3-yl)acetic acid]: less than 0.1 µM; `CCOCCOCc1nc(C)c([C@H](OC(C)(C)C)C(=O)O)c(N2CCC(C)(C)CC2)c1-c1ccccc1` [Example 34, (S)-2-(tert-Butoxy)-2-(4-(4,4-dimethylpiperidin-1-yl)-6-((2-ethoxyethoxy)methyl)-2-methyl-5-phenylpyridin-3-yl)acetic acid]: less than 0.1 µM.
The same measure, in the same setting: next, `Cc1nc(N)c(-c2ccc3c(c2)CCN(c2ncnc4c2cnn4C)C3)c(N2CCC(C)(C)CC2)c1[C@H](OC(C)(C)C)C(=O)O` [Example 149, (S)-2-(6-Amino-4-(4,4-dimethylpiperidin-1-yl)-2-methyl-5-(2-(1-methyl-1H-pyrazolo[3,4-d]pyrimidin-4-yl)-1,2,3,4-tetrahydroisoquinolin-6-yl)pyridin-3-yl)-2-(tert-butoxy)acetic acid]: less than 0.1 µM.
On the same count and under the same terms, then `Cc1nc(CN2CCCC2)c(-c2ccc(OCCc3ccc(F)cc3)cc2)c(N2CCC(C)(C)CC2)c1[C@H](OC(C)(C)C)C(=O)O` [Example 75, (S)-2-(tert-Butoxy)-2-(4-(4,4-dimethylpiperidin-1-yl)-5-(4-(4-fluorophenethoxy)phenyl)-2-methyl-6-(pyrrolidin-1-ylmethyl)pyridin-3-yl)acetic acid], with less than 0.1 µM; and `Cc1ncc([C@H](OC(C)(C)C)C(=O)O)c(N2CCC(C)(C)CC2)c1-c1ccc(OCCc2ccc(F)cc2)cc1` [Example 182, (S)-2-(tert-Butoxy)-2-(4-(4,4-dimethylpiperidin-1-yl)-5-(4-(4-fluorophenethoxy)phenyl)-6-methylpyridin-3-yl)acetic acid], with less than 0.1 µM; and `Cc1nc(-c2cn(C)nn2)c(-c2ccc(OCCc3ccc(F)cc3)cc2)c(N2CCC(C)(C)CC2)c1[C@H](OC(C)(C)C)C(=O)O` [Example 169, (S)-2-(tert-butoxy)-2-(4-(4,4-dimethylpiperidin-1-yl)-5-(4-(4-fluorophenethoxy)phenyl)-2-methyl-6-(1-methyl-1H-1,2,3-triazol-4-yl)pyridin-3-yl)acetic acid], with less than 0.1 µM.
Take `Cc1ncn(Cc2nc(C)c([C@H](OC(C)(C)C)C(=O)O)c(N3CCC(C)(C)CC3)c2-c2ccc3c(c2)CCN(Cc2ccc(F)cc2C)C3)n1` [Example 144, (S)-2-(tert-Butoxy)-2-(4-(4,4-dimethylpiperidin-1-yl)-5-(2-(4-fluoro-2-methylbenzyl)-1,2,3,4-tetrahydroisoquinolin-6-yl)-2-methyl-6-((3-methyl-1H-1,2,4-triazol-1-yl)methyl)pyridin-3-yl)acetic acid]: the EC50 was less than 0.1 µM.
The same measure, in the same setting: next, `Cc1nc(CN2CCC(F)(F)CC2)c(-c2ccc(OCCc3ccc(F)cc3)cc2)c(N2CCC(C)(C)CC2)c1[C@H](OC(C)(C)C)C(=O)O` [Example 86, (S)-2-(tert-Butoxy)-2-(6-((4,4-difluoropiperidin-1-yl)methyl)-4-(4,4-dimethylpiperidin-1-yl)-5-(4-(4-fluorophenethoxy)phenyl)-2-methylpyridin-3-yl)acetic acid]: less than 0.1 µM; `Cc1nc(Cn2ncnc2C)c(-c2ccc(OCCc3ccc(F)cc3)cc2)c(N2CCC(C)(C)CC2)c1[C@H](OC(C)(C)C)C(=O)O` [Example 32, (S)-2-(tert-butoxy)-2-(4-(4,4-dimethylpiperidin-1-yl)-5-(4-(4-fluorophenethoxy)phenyl)-2-methyl-6-((5-methyl-1H-1,2,4-triazol-1-yl)methyl)pyridin-3-yl)acetic acid]: less than 0.1 µM.
The same measure, in the same setting: next, `COCCNC(=O)c1nc(C)c([C@H](OC(C)(C)C)C(=O)O)c(N2CCC(C)(C)CC2)c1-c1ccc(OCCc2ccc(F)cc2)cc1` [Example 39, (S)-2-(tert-Butoxy)-2-(4-(4,4-dimethylpiperidin-1-yl)-5-(4-(4-fluorophenethoxy)phenyl)-6-((2-methoxyethyl)carbamoyl)-2-methylpyridin-3-yl)acetic acid]: less than 0.1 µM.
As to `COCCNCc1nc(C)c([C@H](OC(C)(C)C)C(=O)O)c(N2CCC(C)(C)CC2)c1-c1ccc(OCCc2ccc(F)cc2)cc1` [Example 68, (S)-2-(tert-Butoxy)-2-(4-(4,4-dimethylpiperidin-1-yl)-5-(4-(4-fluorophenethoxy)phenyl)-6-(((2-methoxyethyl)amino)methyl)-2-methylpyridin-3-yl)acetic acid], the EC50 was less than 0.1 µM.
The same measure, in the same setting: next, `Cc1nc(CN(C)C(=O)C(=O)N(C)C)c(-c2ccc(OCCc3ccc(F)cc3)cc2)c(N2CCC(C)(C)CC2)c1[C@H](OC(C)(C)C)C(=O)O` [Example 102, (S)-2-(tert-Butoxy)-2-(6-((2-(dimethylamino)-N-methyl-2-oxoacetamido)methyl)-4-(4,4-dimethylpiperidin-1-yl)-5-(4-(4-fluorophenethoxy)phenyl)-2-methylpyridin-3-yl)acetic acid]: less than 0.1 µM; `Cc1nc(COCC2CN(C(=O)OC(C)(C)C)C2)c(-c2ccc(OCCc3ccc(F)cc3)cc2)c(N2CCC(C)(C)CC2)c1[C@H](OC(C)(C)C)C(=O)O` [Example 21, (S)-2-(tert-Butoxy)-2-(6-(((1-(tert-butoxycarbonyl)azetidin-3-yl)methoxy)methyl)-4-(4,4-dimethylpiperidin-1-yl)-5-(4-(4-fluorophenethoxy)phenyl)-2-methylpyridin-3-yl)acetic acid]: less than 0.1 µM; `Cc1nnc(C(=O)N(C)Cc2nc(C)c([C@H](OC(C)(C)C)C(=O)O)c(N3CCC(C)(C)CC3)c2-c2ccc(OCCc3ccc(F)cc3)cc2)o1` [Example 103, (S)-2-(tert-butoxy)-2-(6-((N,5-dimethyl-1,3,4-oxadiazole-2-carboxamido)methyl)-4-(4,4-dimethylpiperidin-1-yl)-5-(4-(4-fluorophenethoxy)phenyl)-2-methylpyridin-3-yl)acetic acid]: less than 0.1 µM.
Consider `Cc1nc(COCCCOCc2ccccc2)c([C@H](OC(C)(C)C)C(=O)O)c(N2CCC(C)(C)CC2)c1-c1ccc(OCCc2ccc(F)cc2)cc1` [Example 111, (S)-2-(2-((3-(Benzyloxy)propoxy)methyl)-4-(4,4-dimethylpiperidin-1-yl)-5-(4-(4-fluorophenethoxy)phenyl)-6-methylpyridin-3-yl)-2-(tert-butoxy)acetic acid], for which the EC50 was less than 0.1 µM.
For `Cc1nc(C#N)c(-c2ccc(OCCc3ccc(F)cc3)cc2)c(N2CCC(C)(C)CC2)c1[C@H](OC(C)(C)C)C(=O)O` [Example 162, (S)-2-(tert-Butoxy)-2-(6-cyano-4-(4,4-dimethylpiperidin-1-yl)-5-(4-(4-fluorophenethoxy)phenyl)-2-methylpyridin-3-yl)acetic acid], the EC50 was less than 0.1 µM.
For the compound `Cc1cc(F)ccc1CN1CCc2cc(-c3c(C(C)O)nc(C)c([C@H](OC(C)(C)C)C(=O)O)c3N3CCC(C)(C)CC3)ccc2C1` (single isomer, unassigned) [Example 152], the EC50 was less than 0.1 µM.
Same read-out and setting: then `Cc1nc(CN2CCSCC2)c(-c2ccc(OCCc3ccc(F)cc3)cc2)c(N2CCC(C)(C)CC2)c1[C@H](OC(C)(C)C)C(=O)O` [Example 79, (S)-2-(tert-Butoxy)-2-(4-(4,4-dimethylpiperidin-1-yl)-5-(4-(4-fluorophenethoxy)phenyl)-2-methyl-6-(thiomorpholinomethyl)pyridin-3-yl)acetic acid], with less than 0.1 µM.

Still in this assay, the particulars now being: Human immunodeficiency virus 1, MT2, 120 h, read-out: EC50 μM.
On to `CCNCc1nc(C)c([C@H](OC(C)(C)C)C(=O)O)c(N2CCC(C)(C)CC2)c1-c1ccc(OCCc2ccc(F)cc2)cc1` [Example 71, (S)-2-(tert-Butoxy)-2-(4-(4,4-dimethylpiperidin-1-yl)-6-((ethylamino)methyl)-5-(4-(4-fluorophenethoxy)phenyl)-2-methylpyridin-3-yl)acetic acid], for which the EC50 came to 0.002 µM.
The same measure, in the same setting: next, `Cc1ncn(Cc2nc(C)c([C@H](OC(C)(C)C)C(=O)O)c(N3CCC(C)(C)CC3)c2-c2ccc3c(c2)CCN(Cc2ccc(F)cc2C)C3)n1` [Example 144, (S)-2-(tert-Butoxy)-2-(4-(4,4-dimethylpiperidin-1-yl)-5-(2-(4-fluoro-2-methylbenzyl)-1,2,3,4-tetrahydroisoquinolin-6-yl)-2-methyl-6-((3-methyl-1H-1,2,4-triazol-1-yl)methyl)pyridin-3-yl)acetic acid]: 0.025 µM; `Cc1nc(C#N)c(-c2ccc(OCCc3ccc(F)cc3)cc2)c(N2CCC(C)(C)CC2)c1[C@H](OC(C)(C)C)C(=O)O` [Example 162, (S)-2-(tert-Butoxy)-2-(6-cyano-4-(4,4-dimethylpiperidin-1-yl)-5-(4-(4-fluorophenethoxy)phenyl)-2-methylpyridin-3-yl)acetic acid]: 0.008 µM.

The same assay, now with this note: read-out: Activity; NL-RLuc virus in MT-2 cells, 5 days of incubation, luciferase readout.
As to `Cc1cc(F)ccc1CN1CCc2cc(-c3c(C(C)O)nc(C)c([C@H](OC(C)(C)C)C(=O)O)c3N3CCC(C)(C)CC3)ccc2C1` (single isomer, unassigned) [Example 153], the EC50 was less than 0.1 µM.
